Earlier results in US4579840A, “Method of blocking immune complex binding to immunoglobulin Fc receptors” (Immunetech Pharmaceuticals, priority 1983, dated 1986).
Ends that are not written are not given here.

Key:
[1] = biological target: C1 (Homo sapiens, UniProt P02745+P02746+P02747); conditions: Prystowsky et al. 1981, Lukas et al. 1981; cited from earlier work
[2] = system: human monocyte IgG Fc receptors; conditions: literature (Ciccimarra 1975; Stanworth 1982; Ratcliffe and Stanworth 1982); Tuftsin also 'ourselves'; cited from earlier work
[3] = system: granulocytes, monocytes and macrophages; conditions: in vitro; literature; cited from earlier work
[4] = system: macrophage IgG Fc receptors of mice; conditions: Stanworth 1982; cited from earlier work
[5] = system: lymphocytes; conditions: Morgan, Huguli and Weigle 1982; cited from earlier work
[6] = system: local cutaneous allergic reaction (Prausnitz-Kustner); conditions: Hamburger 1975; cited from earlier work
[7] = biological target: T1, IgE Fc receptor of human basophils (Homo sapiens, UniProt P12319); conditions: Plummer et al. 1983; cited from earlier work
T1 construct: host or cells: human basophils
T1 sequence (P12319 26-257): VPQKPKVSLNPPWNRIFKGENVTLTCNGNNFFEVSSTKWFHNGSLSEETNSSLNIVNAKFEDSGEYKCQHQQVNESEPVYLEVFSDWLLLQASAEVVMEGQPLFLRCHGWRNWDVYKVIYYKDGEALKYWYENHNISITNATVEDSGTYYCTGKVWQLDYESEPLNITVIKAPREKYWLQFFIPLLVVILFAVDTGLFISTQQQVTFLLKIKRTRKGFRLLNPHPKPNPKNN
T1 sequence (Q01362 1-244 partner): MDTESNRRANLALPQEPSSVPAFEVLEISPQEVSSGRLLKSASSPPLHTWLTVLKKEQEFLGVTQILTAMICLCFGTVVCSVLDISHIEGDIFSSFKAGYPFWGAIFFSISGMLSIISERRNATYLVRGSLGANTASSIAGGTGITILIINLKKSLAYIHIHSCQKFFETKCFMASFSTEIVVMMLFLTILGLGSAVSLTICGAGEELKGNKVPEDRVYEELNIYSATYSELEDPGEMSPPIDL
T1 sequence (P30273 19-86 partner): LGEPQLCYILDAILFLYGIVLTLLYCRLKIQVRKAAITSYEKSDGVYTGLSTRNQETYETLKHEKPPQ

[8] = system: systemic allergic disease; conditions: after injection by the subcutaneous route; cited from earlier work
[9] = system: human and rodent mast cells; conditions: Stanworth et al. 1979; cited from earlier work

Chain of C1 (P02745 23-245): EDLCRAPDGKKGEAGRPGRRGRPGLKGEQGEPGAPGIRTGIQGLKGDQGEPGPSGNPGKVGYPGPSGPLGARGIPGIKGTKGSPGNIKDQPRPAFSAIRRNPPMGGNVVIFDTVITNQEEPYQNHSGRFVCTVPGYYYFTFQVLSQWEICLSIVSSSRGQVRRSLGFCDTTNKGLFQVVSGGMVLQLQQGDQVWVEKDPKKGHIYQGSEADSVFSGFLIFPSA
Chain of C1 (P02746 28-253): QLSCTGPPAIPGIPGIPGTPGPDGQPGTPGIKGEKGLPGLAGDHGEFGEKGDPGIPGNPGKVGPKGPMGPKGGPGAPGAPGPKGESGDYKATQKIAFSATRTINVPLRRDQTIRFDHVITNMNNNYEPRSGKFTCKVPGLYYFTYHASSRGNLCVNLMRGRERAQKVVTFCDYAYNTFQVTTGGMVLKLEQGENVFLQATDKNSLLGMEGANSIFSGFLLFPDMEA
Chain of C1 (P02747 29-245): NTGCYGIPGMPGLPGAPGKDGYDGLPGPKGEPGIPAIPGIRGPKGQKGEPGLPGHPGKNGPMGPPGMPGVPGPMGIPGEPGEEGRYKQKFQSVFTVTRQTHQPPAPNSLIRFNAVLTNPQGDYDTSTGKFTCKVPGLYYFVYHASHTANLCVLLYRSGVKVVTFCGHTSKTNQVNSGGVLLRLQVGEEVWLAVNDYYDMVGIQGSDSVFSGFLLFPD
Chain of C1 (P00736 18-705 partner): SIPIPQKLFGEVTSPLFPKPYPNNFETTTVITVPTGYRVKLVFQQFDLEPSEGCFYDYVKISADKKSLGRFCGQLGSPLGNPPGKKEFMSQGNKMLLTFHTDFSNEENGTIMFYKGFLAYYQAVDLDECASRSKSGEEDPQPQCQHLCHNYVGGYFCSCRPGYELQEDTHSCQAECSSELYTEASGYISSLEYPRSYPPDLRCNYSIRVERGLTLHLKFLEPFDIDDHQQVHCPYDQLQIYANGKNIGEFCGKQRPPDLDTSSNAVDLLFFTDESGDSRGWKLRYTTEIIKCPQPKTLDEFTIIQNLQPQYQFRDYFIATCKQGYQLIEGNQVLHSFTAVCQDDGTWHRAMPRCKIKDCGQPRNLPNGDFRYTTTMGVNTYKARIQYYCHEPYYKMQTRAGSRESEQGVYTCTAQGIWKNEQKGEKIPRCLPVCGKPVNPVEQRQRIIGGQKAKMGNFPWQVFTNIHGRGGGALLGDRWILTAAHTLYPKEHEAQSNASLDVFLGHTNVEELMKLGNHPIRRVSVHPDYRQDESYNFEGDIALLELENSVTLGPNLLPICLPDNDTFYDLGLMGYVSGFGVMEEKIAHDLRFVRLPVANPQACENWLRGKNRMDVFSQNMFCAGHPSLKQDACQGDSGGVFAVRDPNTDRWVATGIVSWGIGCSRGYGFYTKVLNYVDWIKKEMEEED
Chain of C1 (P09871 16-688 partner): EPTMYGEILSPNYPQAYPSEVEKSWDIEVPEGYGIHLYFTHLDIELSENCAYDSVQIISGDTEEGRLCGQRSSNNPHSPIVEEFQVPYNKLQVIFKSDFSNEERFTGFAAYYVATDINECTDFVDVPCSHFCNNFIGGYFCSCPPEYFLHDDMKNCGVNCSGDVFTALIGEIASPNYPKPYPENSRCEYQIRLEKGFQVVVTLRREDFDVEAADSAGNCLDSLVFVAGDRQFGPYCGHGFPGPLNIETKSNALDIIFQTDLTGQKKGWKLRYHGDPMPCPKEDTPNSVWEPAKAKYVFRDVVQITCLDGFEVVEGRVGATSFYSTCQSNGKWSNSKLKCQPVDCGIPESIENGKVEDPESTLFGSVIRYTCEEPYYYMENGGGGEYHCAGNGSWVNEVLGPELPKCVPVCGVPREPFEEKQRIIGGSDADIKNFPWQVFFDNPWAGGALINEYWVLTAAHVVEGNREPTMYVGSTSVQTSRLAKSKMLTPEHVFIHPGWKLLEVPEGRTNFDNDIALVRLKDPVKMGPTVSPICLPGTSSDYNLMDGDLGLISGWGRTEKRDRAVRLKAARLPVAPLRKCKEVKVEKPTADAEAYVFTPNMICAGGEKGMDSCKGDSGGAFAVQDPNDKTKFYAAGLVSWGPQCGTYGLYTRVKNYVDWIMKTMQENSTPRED

Thr-Lys-Pro-Arg (TKPR; printed: Thr-Lys-Pro-Arg) [Tuftsin]
inhibition of C1-mediated hemolysis [1]: less active | blocking of human IgG binding to human monocyte IgG Fc receptors [2]: competitively inhibits | stimulation of phagocytosis [3]: active at nanomolar concentrations

VFSRLEVTRAE
binding of 125I-human IgG to mouse macrophages [4]: marked enhancement

QYDSTYR
blocking of human IgG binding to human monocyte IgG Fc receptors [2]: could slightly block

TISKAKGQPREPQVYTLPSREEM
nonspecific activation of lymphocytes [5]: induce polyclonal B cell proliferation, antigen-specific antibody responses and Natural Killer (NK) cell-mediated lysis

GVQVHNAKTK
inhibition of C1-mediated hemolysis [1]: approximately as active as inhibitors as intact monomeric IgG

FNWYVDGVQVHNAKTK
inhibition of C1-mediated hemolysis [1]: less active

Gly-Gln-Pro-Arg (GQPR; printed: Gly-Gln-Pro-Arg) [Rigin]
stimulation of phagocytosis [3]: phagocytosis-stimulating abilities similar to those of Tuftsin

Asp-Ser-Asp-Pro-Arg (DSDPR; printed: Asp-Ser-Asp-Pro-Arg)
inhibition of local cutaneous allergic reaction (Prausnitz-Kustner) [6]: approximately 90% | block of human IgE binding to basophil IgE Fc receptors [7]: up to 70% | effect on systemic allergic disease in humans [8]: inhibit systemic allergic disease

PRKTKGSGFFVF
degranulation of mast cells [9]: able to cause degranulation
